pIC50, pKi: −log10 of the molar value.
Tests used:
Assay type in all cases: biochemical
hPDE9A = molecular target: T1, hPDE9A (Homo sapiens, UniProt O76083); experiment: PDE7 selectivity test (Ki value), Experimental Example 2: hPDE9A; conditions: Ki from IC50 by Cheng-Prusoff, read-out: PDE inhibition constant Ki, PDE9
T1 construct: made in house; host or cells: COS-7 cells
Experimental: hPDE1A, hPDE2A, hPDE3A, hPDE4D, hPDE5A, and hPDE8B were purchased from SB Drug Discovery. hPDE7B was isolated by the same method as [Method for preparing samples 1], and hPDE9A, hPDE10A, and hPDE11A were isolated by the same method as hPDE7B, i.e., isolated from COS-7 cells transfected with plasmids encoding each PDE. PDE6 was purified and isolated from bovine retina (bovine PDE6).
Prior to the calculation of Ki value, Km value of each PDE against cAMP or cGMP was calculated. Each PDE diluted with an assay buffer so that it would have an appropriate enzyme activity, and six or more concentrations of cAMP or cGMP were reacted at room temperature for 60 minutes. Regarding PDE using cAMP as a substrate, PDELight (trademark) HTS cAMP phosphodiesterase Kit (Lonza) was used to measure a degradation product, 5′-AMP. Also, regarding PDE using cGMP as a substrate, […] of perchloric acid was added to the mixture to stop the reaction, and the resulting mixture was subjected to LC-MS/MS to measure the residual cGMP concentration. The amount of degraded substrate in each substrate concentration was calculated, the concentration of the added substrate was plotted on the horizontal axis, the amount of degraded substrate was plotted on the vertical axis, and Km value was calculated by non-linear regression on the basis of Michaelis-Menten equation. Km value (substrate) of each PDE was hPDE1A: 4.3 (cGMP), hPDE2A: 36 (cAMP), hPDE3A: 0.11 (cAMP), hPDE4D: 0.90 (cAMP), hPDE5A: 3.9 (cGMP), bovine PDE6:9.8 (cGMP), hPDE7B: 0.015 (cAMP), hPDE8B: 0.63 (cAMP), hPDE9A: 0.0037 (cGMP), hPDE10A: 0.051 (cAMP), and hPDE11A: 1.4 (cAMP) μmol/L, respectively.
Next, PDE inhibition assay of a compound was carried out using each PDE. The PDE inhibition assay was basically carried out by the same enzyme reaction method as [Assay procedure 1], and the degraded amount of cAMP or cGMP was measured by the same method as [Assay procedure 2]. In the assay, a concentration approximated to Km value of each PDE against cAMP or cGMP was used as a substrate concentration. Meanwhile, regarding hPDE5A, hPDE8B, and hPDE9A, IMAP (trademark) FP Phosphodiesterase Evaluation Assay Kit (Molecular Devices) was used to measure the degradation of FAM-cAMP or FAM-cGMP by fluorescence depolarization technique.
Each compound was evaluated at six or more concentrations with common ratio 10. Each inhibition rate was calculated according to <Method for data calculation 1>, and then each IC50 value was calculated by sigmoid regression. The resulting IC50 value was used in the following Cheng-Prusoff equation to calculate each Ki value. Ki=IC50/(1+[S]/Km), wherein [S] represents a substrate concentration used

hPDE8B = molecular target: T2, hPDE8B (Homo sapiens, UniProt O95263); experiment: PDE8 inhibition assay (IC50), Experimental Example 3; conditions: hPDE8B; read-out: PDE inhibition assay IC50, PDE8
T2 construct: purchased SB Drug Discovery
T2 sequence (O95263 whole entry): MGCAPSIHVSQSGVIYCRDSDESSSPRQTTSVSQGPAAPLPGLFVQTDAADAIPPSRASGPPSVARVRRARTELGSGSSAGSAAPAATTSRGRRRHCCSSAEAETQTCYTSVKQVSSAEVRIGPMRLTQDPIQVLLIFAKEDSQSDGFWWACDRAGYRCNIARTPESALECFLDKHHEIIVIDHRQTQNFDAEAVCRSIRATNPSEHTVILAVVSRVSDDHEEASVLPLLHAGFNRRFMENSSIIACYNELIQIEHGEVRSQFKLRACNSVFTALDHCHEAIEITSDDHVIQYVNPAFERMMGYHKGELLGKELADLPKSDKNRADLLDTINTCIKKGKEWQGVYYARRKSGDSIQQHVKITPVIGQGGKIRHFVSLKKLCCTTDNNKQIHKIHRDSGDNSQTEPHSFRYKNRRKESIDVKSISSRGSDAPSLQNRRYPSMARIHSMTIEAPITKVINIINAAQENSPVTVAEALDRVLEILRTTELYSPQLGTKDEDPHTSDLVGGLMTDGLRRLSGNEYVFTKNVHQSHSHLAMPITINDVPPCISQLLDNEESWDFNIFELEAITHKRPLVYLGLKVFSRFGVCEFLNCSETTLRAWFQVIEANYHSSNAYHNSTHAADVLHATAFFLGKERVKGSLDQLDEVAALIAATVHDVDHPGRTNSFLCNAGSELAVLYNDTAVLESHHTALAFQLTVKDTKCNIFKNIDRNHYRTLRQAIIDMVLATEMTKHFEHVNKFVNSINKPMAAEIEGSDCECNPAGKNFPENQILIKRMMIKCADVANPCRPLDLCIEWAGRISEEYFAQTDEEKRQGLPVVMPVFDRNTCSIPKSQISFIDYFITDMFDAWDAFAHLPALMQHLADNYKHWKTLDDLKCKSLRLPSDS
How it was run: (§1)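 Recombinant human enzymes incubated with compound and 3 nmol/L cAMP (final) in Tris-HCl pH 7.5 buffer with MgCl2, BSA, DTT, 2% DMSO final, 60 min at room temperature. Residual cAMP measured by TR-FRET (LANCE Ultra), reaction stopped with 0.5 mmol/L IBMX. IC50 from inhibition relative to no-compound (0%) and no-enzyme (100%) controls.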

hPDE10A = hPDE10A (Homo sapiens, UniProt Q9Y233); experiment: PDE10 inhibition assay (IC50), Experimental Example 3; conditions: for pIC50: hPDE10A, read-out: PDE inhibition assay IC50, PDE10; for inhibition at 10 µM: at 10 μmol/L, read-out: inhibition rate (%) at prescribed concentration, PDE10
hPDE10A, sequence (Q9Y233 290-1055 limits assumed): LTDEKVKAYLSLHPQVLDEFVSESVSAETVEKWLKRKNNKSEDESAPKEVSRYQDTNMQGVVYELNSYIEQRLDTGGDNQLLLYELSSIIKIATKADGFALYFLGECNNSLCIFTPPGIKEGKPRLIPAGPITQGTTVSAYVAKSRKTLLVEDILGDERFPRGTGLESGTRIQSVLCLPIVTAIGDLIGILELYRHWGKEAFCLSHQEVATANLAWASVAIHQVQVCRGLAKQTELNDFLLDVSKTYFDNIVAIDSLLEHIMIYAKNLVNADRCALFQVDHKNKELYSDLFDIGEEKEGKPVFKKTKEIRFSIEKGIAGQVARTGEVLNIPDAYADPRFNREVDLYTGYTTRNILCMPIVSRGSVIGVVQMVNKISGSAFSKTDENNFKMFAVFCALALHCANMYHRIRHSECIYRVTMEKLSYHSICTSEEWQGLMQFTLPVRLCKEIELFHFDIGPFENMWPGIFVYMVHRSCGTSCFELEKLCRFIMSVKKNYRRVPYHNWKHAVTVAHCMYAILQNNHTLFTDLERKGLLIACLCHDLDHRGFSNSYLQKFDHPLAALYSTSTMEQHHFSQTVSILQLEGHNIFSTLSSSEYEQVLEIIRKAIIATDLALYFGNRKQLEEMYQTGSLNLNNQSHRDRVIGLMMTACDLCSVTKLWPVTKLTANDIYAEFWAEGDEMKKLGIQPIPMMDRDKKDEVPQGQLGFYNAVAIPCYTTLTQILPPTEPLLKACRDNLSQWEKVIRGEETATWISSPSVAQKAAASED
How it was run: as §1

T1 sequence (O76083 whole entry): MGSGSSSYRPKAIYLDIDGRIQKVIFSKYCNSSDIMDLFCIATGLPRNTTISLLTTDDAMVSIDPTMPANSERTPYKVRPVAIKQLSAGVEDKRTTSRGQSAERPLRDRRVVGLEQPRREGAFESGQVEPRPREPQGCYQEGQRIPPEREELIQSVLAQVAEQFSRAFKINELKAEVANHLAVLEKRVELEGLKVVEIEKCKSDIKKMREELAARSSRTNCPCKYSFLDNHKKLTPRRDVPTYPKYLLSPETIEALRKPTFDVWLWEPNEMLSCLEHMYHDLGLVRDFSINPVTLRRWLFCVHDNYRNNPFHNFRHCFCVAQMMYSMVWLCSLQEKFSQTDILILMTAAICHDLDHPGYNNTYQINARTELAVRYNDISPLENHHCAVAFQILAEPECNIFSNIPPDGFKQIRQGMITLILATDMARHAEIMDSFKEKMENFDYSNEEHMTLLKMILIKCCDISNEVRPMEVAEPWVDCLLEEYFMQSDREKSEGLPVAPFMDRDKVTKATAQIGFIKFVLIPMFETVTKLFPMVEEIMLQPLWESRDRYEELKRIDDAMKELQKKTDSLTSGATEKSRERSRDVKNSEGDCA

Structure (SMILES)	pKi (hPDE9A)	pIC50 (hPDE8B)	pIC50 (hPDE10A)	inhibition at 10 µM (hPDE10A) [%]
Cc1nc(N)c2nnn(C3CCCCC3)c2n1 [Example 4]	< 6.44	–	5.76	–
C[C@@H]1CCC[C@H](c2nnc3c(N)nccn23)C1 [Example 204, 3-[(1S,3R)-3-methylcyclohexyl][1,2,4]triazolo[4,3-a]pyrazin-8-amine]	< 5.44	5.76	5.53	–
Nc1ncnc2c1nnn2C1CCCCC1 [Example 3, 3-cyclohexyl-3H-[1,2,3]triazolo[4,5-d]pyrimidin-7-amine]	< 5.44	6.15	–	27

Second part, the molecule after the results:

pKi (hPDE9A)	pIC50 (hPDE8B)	pIC50 (hPDE10A)	inhibition at 10 µM (hPDE10A) [%]	Structure (SMILES)
< 5.44	5.27	5.46	–	CC1CCCCC1n1nnc2c(N)ncnc21 (single isomer, unassigned) [Example 191, 3-(cis-2-methylcyclohexyl)-3H-[1,2,3]triazolo[4,5-d]pyrimidin-7-amine]
< 6.44	5.75	–	30	Nc1nccn2c(C3CCCCC3)nnc12 [Example 141, 3-cyclohexyl[1,2,4]triazolo[4,3-a]pyrazin-8-amine]

Reference: patent US20190185479A1, “BICYCLIC NITROGENATED HETEROCYCLIC COMPOUND” (MITSUBISHI TANABE PHARMA CORPORATION, priority 2016, published 2019)
